Square brackets hold non-standard residues; d marks the D form. Peptide text beside a SMILES is read from it. * marks the point of attachment. Hydrocinnamoyl = O=C(CCc1ccccc1)*; Tic = O=C(O)[C@@H]1Cc2ccccc2CN1; NMeL = CN[C@@H](CC(C)C)C(=O)O

The nature of data set [1]: Plasma stability, human plasma. Type of data set: in vitro ADME. Particulars: 37° C., time points 0 minute, 1, 2 and 4 hours, LC-MS/MS, read-out: Human plasma (T1/2 (h)) (converted). The procedure: (§1) 1. Preparation of 50 mM Phosphate Buffer (50 mM Sodium Phosphate and 70 mM NaCl):
(§2) 5.750 g of Na2HPO4, 1.141 g of NaH2PO4 and 4.095 g of NaCl (Shanghai Titan) were weighed and dissolved in 1000 mL of ultrapure water and the pH was adjusted to 7.4. The prepared phosphate buffer was stored in the refrigerator at 4° C., valid for one week.
(§3) 2. Preparation of Compound Stock Solution:
(§4) 1) 5 mg/mL test compound: 5 mg of compound was weighed and dissolved in 1 mL of DMSO.
(§5) 2) 20 mM control: 2.728 mg of nococaine was dissolved in 0.5 mL of DMSO. 3.878 mg of fenfluramide was dissolved in 0.5 mL of DMSO (Amresco).
(§6) 3. Preparation of Experimental Plasma:
(§7) The frozen plasma (human: Shanghai ChemPartner, Rat, Mouse: Shanghai Xipuer-Beikai, Dog, Monkey: Suzhou Xishan Zhongke) was taken out from the −80° C. refrigerator, immediately placed in a 37° C. water bath, and thawn with gentle shaking. The thawed plasma was poured into a centrifuge tube, and centrifuged at 3000 rpm for 8 minutes. The supernatant was collected for the experiment. The pH of the plasma was measured with a pH meter (METTLER TOLEDO), and only the plasma with a pH between 7.4 and 8 was used for the experiment. The plasma was placed on an ice bath for later use.
4. Preparation of the Dosing Solution:
1) 125 μg/mL test compound solution: 5 μL of 5 mg/mL test compound (see step 2) was added to 195 μL DMSO; 500 μM control solution: 20 mM control stock solution (see step 2) was added to 195 μL DMSO.
2) 0.5% BSA phosphate buffer solution: 0.05 g of BSA was added to 10 mL of phosphate buffer (see step 1).
3) 5 μg/mL test compound dosing solution: 40 μL of 125 μg/mL test compound solution was added to 960 μL of 0.5% BSA phosphate buffer solution, shaken and mixed evenly, and the dosing solution was placed in a 37° C. water bath and preheated for 5 minutes.
20 μM control dosing solution: 40 μL of 500 μM control solution was added to 960 μL of 0.5% BSA phosphate buffer solution, shaken and mixed evenly, and the dosing solution was placed in a 37° C. water bath and preheated for 5 minutes.
5. 10 μL of 5 μg/mL test compound and 20 μM control solution were added to the wells of the 96-well plate set at different time points (0 minute, 1 hour, 2 hours and 4 hours). The number of duplicate samples was 3.
6. 500 μL of ACN (IS) containing 5% FA was added to the wells set at 0 minute. 90 μL of plasma was then added thereto, mixed evenly, sealed with the film and stored at 4° C. (the number of duplicates was 3).
7. 90 μL of plasma was added to the wells set at 1 hour, 2 hours and 4 hours (the number of replicates was 3), followed by timing (the final concentration of the test compound was 500 ng/mL, and that of the control was 2 μM).
9. All samples (0 minutes, 1 hour, 2 hours, and 4 hours) at different time points on the 96-well plate were placed on a shaker (IKA, MTS 2/4) and shaken at 600 rpm for 60 minutes. The samples were then centrifuged for 15 minutes on a centrifuge machine (Thermo Multifuge×3R) at 5594×g.
10. 150 μL of the supernatant was taken out from the centrifuged sample and sent to LC-MS/MS for analysis (conventional peptide LC-MS/MS analysis).

A short description of data set [2]: Plasma stability, rat plasma. Type of data set: in vitro ADME. The note with it: 37° C., time points 0 minute, 1, 2 and 4 hours, LC-MS/MS, read-out: Rat plasma (T1/2 (h)) (converted). The procedure:
as §1, §2, §3, §4, §5, §6, §7
4. Preparation of the Dosing Solution: […]

In the case of `CC(C)C[C@H](NC(=O)[C@H](Cc1ccccc1)NC(=O)[C@H](N)Cc1ccc(O)cc1)C(=O)N1CCC[C@H]1C(=O)N[C@H](CO)C(=O)N[C@@H](CCC(N)=O)C(=O)N[C@@H](Cc1ccccc1)C(=O)N[C@H](C)C(=O)N1Cc2ccccc2C[C@H]1C(=O)N[C@@H](CO)C(=O)O` [YW-3, (D-Tyr)-Phe-Leu-Pro-(D-Ser)-Gln-Phe-(D-Ala)-Tic-Ser, reference compound] (H-[dY]FLP[dS]QF[dA][Tic]S-OH), the half-life at 500 ng/mL is 12.8 h in data set [1] and 11.7 h in data set [2].
On the same counts, the results for `CC(C)C[C@@H](C(=O)N1CCC[C@H]1C(=O)N[C@H](CO)C(=O)N[C@@H](CCC(N)=O)C(=O)N[C@@H](Cc1ccccc1)C(=O)N[C@H](C)C(=O)N1Cc2ccccc2C[C@H]1C(=O)N[C@@H](CO)C(=O)O)N(C)C(=O)[C@H](Cc1ccccc1)NC(=O)[C@@H](Cc1ccc(O)cc1)NC(=O)CCc1ccccc1` [YW-111, 3-phenylpropanoyl-(D-Tyr)-Phe-(NMe-Leu)-Pro-(D-Ser)-Gln-Phe-(D-Ala)-Tic-Ser-OH] (Hydrocinnamoyl-[dY]F[NMeL]P[dS]QF[dA][Tic]S-OH) are 71 h and above 71 h.

(Values after patent US12129312B2, “Peptide compound, application thereof and composition containing same” (priority 2017, dated 2024).)
